Source: patent US5206237A, “Benzodiazepine analogs” (Merck & Co., Inc., priority 1991, dated 1993)

Key:
[1] = rat, brain synaptosomal fraction; cited from earlier work
[2] = tested on: CCK-B receptors; settings: in words; cited from earlier work
[3] = tested on: CCK-A receptors; settings: in words; cited from earlier work
[4] = biological target: T1, gastrin receptor (Cavia porcellus, UniProt H0VZC5); test: Gastrin receptor binding in guinea pig gastric glands; parameters: species or system guinea pig (male Hartley); settings: read-out: IC^50 Gastrin
T1 construct: Guinea pig gastric mucosal glands were prepared by the procedure of Berglingh and Obrink; from tissue; host or cells: guinea pig gastric mucosal glands
Description: Gastrin antagonist activity of compounds of Formula I is determined using the following assay: […]
Gastrin Receptor Binding in Guinea Pig Gastric Glands Preparation of guinea pig gastric mucosal glands
Guinea pig gastric mucosal glands were prepared by the procedure of Berglingh and Obrink Acta Physiol. Scand. 96: 150 (1976) with a slight modification according to Praissman et al. C. J. Receptor Res. 3: (1983). Gastric mucosa from guinea pigs (300-500 g body weight, male Hartley) were washed thoroughly and minced with fine scissors in standard buffer consisting of the following: 130 mM NaCl, 12 mM NaHCO3, 3 mM NaH2 PO4, 3 mM K2 HPO4, 2 mM MgSO4, 1 mM CaCl2, 5 mM glucose and 4 mM L-glutamine, 25 mM HEPES at pH 7.4. The minced tissues were washed and then incubated in a 37° C. shaker bath for 40 minutes with the buffer containing 0.1% collagenase and 0.1% BSA and bubbled with 95% O2 and 5% CO2. The tissues were passed twice through a 5 ml glass syringe to liberate the gastric glands, and then filtered through 200 mesh nylon. The filtered glands were centrifuged at 270 g for 5 minutes and washed twice by resuspension and centrifugation.

[5] = biological target: T2, CCK receptor (brain) (Cavia porcellus, UniProt H0VZC5); test: CCK receptor binding (Brain), inhibition of 125I-CCK binding; parameters: species or system guinea pig (male Hartley); settings: guinea pig cerebral cortex, 125I-CCK-33, 25° C., 2 hours; read-out: IC^50 ^125 I-CCK Brain
T2 construct: Cerebral cortex was dissected and used as a receptor source; from tissue; host or cells: guinea pig cerebral cortex, membrane preparation
Description: 2. CCK Receptor Binding (Brain)
CCK-33 was radiolabeled and the binding was performed according to the description for the pancreas method with modifications according to Saito et al., J. Neurochem. 37, 483-490, 1981.
Male Hartley guinea pigs (300-500 g) were sacrificed by decapitation and the brains were removed and placed in ice-cold 50 mM, Tris HCl plus 7.58 g/l Trizma-7.4 (pH 7.4 at 25° C.). Cerebral cortex was dissected and used as a receptor source. Each gram of fresh guinea pig brain tissue was homogenized in 10 ml of Tris Trizma buffer with a Brinkman polytron PT-10. The homogenates were centrifuged at 42,000 g for 15 min. […] All assays were run in duplicate or triplicate. The reaction mixtures were incubated at 25° C. for 2 hours and centrifuged in a Beckman Microfuge (4 minutes) immediately after adding 1 ml of ice-cold incubation buffer. The supernatant was aspirated and discarded, pellets were counted with a Beckman gamma 5000.

[6] = biological target: T3, CCK receptor (pancreas) (Rattus norvegicus, UniProt P30551); test: CCK receptor binding (Pancreas), inhibition of 125I-CCK binding; parameters: species or system rat (male Sprague-Dawley); settings: 125I-CCK-33, 37° C., 30 minutes, read-out: IC^50 ^125 I-CCK Pancreas
T3 construct: The whole pancreas was dissected free of fat tissue and was homogenized; from tissue; host or cells: rat whole pancreas, membrane preparation
T3 sequence (P30551 1-444): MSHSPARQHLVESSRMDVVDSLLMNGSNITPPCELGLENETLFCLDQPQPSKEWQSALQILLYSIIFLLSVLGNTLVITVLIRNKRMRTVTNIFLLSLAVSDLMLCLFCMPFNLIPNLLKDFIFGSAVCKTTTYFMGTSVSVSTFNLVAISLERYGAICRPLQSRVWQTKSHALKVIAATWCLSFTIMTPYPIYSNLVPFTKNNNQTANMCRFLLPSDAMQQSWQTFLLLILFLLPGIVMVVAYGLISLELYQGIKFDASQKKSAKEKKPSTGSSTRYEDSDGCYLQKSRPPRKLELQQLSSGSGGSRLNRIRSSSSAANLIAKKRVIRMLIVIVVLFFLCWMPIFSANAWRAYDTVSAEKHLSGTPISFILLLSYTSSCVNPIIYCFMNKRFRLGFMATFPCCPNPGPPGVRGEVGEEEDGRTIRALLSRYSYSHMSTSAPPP
Description: 1. CCK Receptor Binding (Pancreas)
CCK-33 was radiolabeled with ^125 I-Bolton Hunter reagent (2000 Ci/mmole) as described by Sankara et al. (J. Biol. Chem. 254: 9349-9351, 1979). Receptor binding was performed according to Innis and Snyder (Proc. Natl. Acad. Sci. 77: 6917-6921, 1980) with the minor modification of adding the additional protease inhibitors, phenyl-methane sulfonyl fluoride and o-phenanthroline. The latter two compounds have no effect on the ^125 I-CCK receptor binding assay.
Male Sprague-Dawley rats (200-350g) were sacrificed by decapitation. The whole pancreas was dissected free of fat tissue and was homogenized in 20 volumes of ice-cold 50 mM, Tris HCl (pH 7.7 at 25° C.) with a Brinkmann Polytron PT 10. The homogenates were centrifuged at 48,000 g for 10 min. Pellets were resuspended in Tris Buffer, centrifuged as above and resuspended in 200 volumes of binding assay buffer (50 mM Tris HCl, pH 7.7 at 25° C., 5 mM dithiothrietol, 0.1 mM bacitracin, 1.2 mM phenylmethane sulfonyl fluoride and 0.5 mM o-phenanthroline). […] All assays were run in duplicate or triplicate. The reaction mixtures were incubated at 37° C. for 30 minutes and centrifuged in a Beckman Microfuge (4 minutes) immediately after adding 1 ml of ice-cold incubation buffer. The supernatant was aspirated and discarded, pellets were counted with a Beckman gamma 5000. For Scatchard analysis (Ann. N.Y. Acad. Sci. 51: 660, 1949), ^125 I-CCK-33 was progressively diluted with increasing concentrations of CCK-33.

[7] = tested on: stomach gastrin receptor; settings: in words; cited from earlier work

T1 sequence (H0VZC5 entry or part of it): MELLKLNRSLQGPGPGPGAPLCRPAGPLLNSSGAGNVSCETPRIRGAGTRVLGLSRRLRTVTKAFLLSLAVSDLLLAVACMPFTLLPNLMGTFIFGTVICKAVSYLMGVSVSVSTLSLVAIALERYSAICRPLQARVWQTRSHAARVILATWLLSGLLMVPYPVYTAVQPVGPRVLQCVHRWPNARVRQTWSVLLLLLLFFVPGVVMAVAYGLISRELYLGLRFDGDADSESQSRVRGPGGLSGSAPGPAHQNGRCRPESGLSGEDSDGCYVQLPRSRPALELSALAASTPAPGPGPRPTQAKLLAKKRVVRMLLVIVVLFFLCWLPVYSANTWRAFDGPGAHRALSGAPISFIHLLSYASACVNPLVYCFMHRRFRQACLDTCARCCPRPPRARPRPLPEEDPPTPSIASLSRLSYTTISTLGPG
T2 sequence (H0VZC5 entry or part of it): as above

Compound | affinity for CCK-B receptors [2] | affinity for CCK-A receptors [3] | IC50 [4] | IC50 [5] | IC50 [6] | further results
CSCC[C@H](NC(=O)[C@H](Cc1ccc(OS(=O)(=O)O)cc1)NC(=O)[C@@H](N)CC(=O)O)C(=O)NCC(=O)N[C@@H](Cc1c[nH]c2ccccc12)C(=O)N[C@@H](CCSC)C(=O)N[C@@H](CC(=O)O)C(=O)N[C@@H](Cc1ccccc1)C(N)=O [CCK-8s, H-Asp-Tyr(SO3 H)-Met-Gly-Trp-Met-Asp-Phe-NH2] | high affinity | high affinity | – | – | – | half-life [1]: less than 1 hour
Cc1cccc(NC(=O)NC2N=C(c3ccccc3)c3ccccc3N=C2NCCCN2CCCC2=O)c1 (stereo not shown) [Example 14, N-[3-Methylphenyl]-N'-[2-((3-(2-oxo)pyrrolidinyl)propyl)amino-5-phenyl-3H-1,4-benzodiazepin-3-yl]-urea] | – | – | 13 nM | 15 nM | 590 nM | –
CSCC[C@H](NC(=O)[C@@H](N)Cc1c[nH]c2ccccc12)C(=O)N[C@@H](CC(=O)O)C(=O)N[C@@H](Cc1ccccc1)C(N)=O [CCK-4] | high affinity | lower affinity | – | – | – | potency at stomach gastrin receptor [7]: minimum fully potent CCK sequence
CSCC[C@H](NC(=O)[C@H](Cc1c[nH]c2ccccc12)NC(=O)CCNC(=O)OC(C)(C)C)C(=O)N[C@@H](CC(=O)O)C(=O)N[C@@H](Cc1ccccc1)C(N)=O [pentagastrin] | high affinity | – | – | – | – | –
Cc1cccc(NC(=O)NC2N=C(c3ccccc3)c3ccccc3N=C2NCC(=O)N2CCCC2)c1 (stereo not shown) [Example 11, 1-[[(3-((3-Methylphenylaminocarbonyl)amino)-5-phenyl-3H-1,4-benzodiazepin-2-yl)amino]acetyl]-pyrrolidine] | – | – | 20 nM | 5.9 nM | 1100 nM | –
gastrin: neuropeptide structurally related to cholecystokinin | – | lower affinity | – | – | – | –
CSCC[C@H](NC(=O)[C@H](Cc1ccc(O)cc1)NC(=O)[C@@H](N)CC(=O)O)C(=O)NCC(=O)N[C@@H](Cc1c[nH]c2ccccc12)C(=O)N[C@@H](CCSC)C(=O)N[C@@H](CC(=O)O)C(=O)N[C@@H](Cc1ccccc1)C(N)=O [CCK-8d] | – | lower affinity | – | – | – | –
CSC1=Nc2ccccc2C(c2ccccc2F)=N[C@@H]1Cc1c[nH]c2ccccc12 [Example 2, 2-Methylthio-3(R)-(3'-indolyl)methyl-5-(2'-fluorophenyl)2H-1,4-benzodiazepine] | – | – | – | – | 17000 nM | –
Cc1cccc(NC(=O)NC2N=C(c3ccccc3)c3ccccc3N=C2NCC(=O)N2CCN(C)CC2)c1 (stereo not shown) [Example 12, 1-Methyl-4-[[(3-((((3-methylphenyl)amino)carbonyl)amino)-5-phenyl-3H-1,4-benzodiazepin-2-yl)amino]acetyl]-piperazine] | – | – | 180 nM | 124 nM | 1000 nM | –
CCN(CC)CCCNC1=Nc2ccccc2C(c2ccccc2)=NC1NC(=O)Nc1cccc(C)c1 (stereo not shown) [Example 13, N-[2-[((3-Diethylamino)propyl)amino]-5-phenyl-3H-1,4-benzodiazepin-3-yl]-N'-[3-methylphenyl]-urea] | – | – | 120 nM | 78 nM | 14000 nM | –
